US10766912B2 (priority 2017, dated 2020)

Tests used:
[1] = tested on: HCV GT1b/6a NS5A chimeric replicon; test: Assay Example 1: activity against HCV GT1b/6a NS5A chimeric replicon; assay type: cell-based; details: Hepatitis C virus, Huh-7, 72 h, read-out: EC50 value GT1b/6a NS5A chimeric replicon
Description: (§1) Cells: Huh 7 cell line and HCV GT1b/3a and GT1b/6a NS5A chimeric replicons and GT1b and GT1a wild-type replicon RNA.
(§2) Treatment of Compound: According to the assay final concentrations of the compounds in Table 2, DMSO stock solutions of the compounds were diluted and then added to a 96-well assay plate. The final concentration of DMSO was 0.5%.
(§3) The preparation of cells: After replicon plasmid DNA was linearized with a corresponding restriction enzyme, the DNA was transcribed into RNA by using T7RNA polymerase. Replicon RNA prepared by transcription in vitro was transfected into Huh-7 cells by electroporation. Transfected cells were seeded at a density of 10,000 cells per well into the 96-well assay plate containing the diluted compounds, and then the plate was placed in a 37° C. incubator with 5% CO2 and cultured for 3 days.
(§4) Drug activity assay: Luminescence signal value (RLU) was detected with Envision within 15 minutes using the luciferase assay reagent Britelite plus, and the original data (RLU) was used for the calculation of the activity of the compounds.
(§5) The activity of the compounds was calculated by using the equation below: Inhibition %=(ZPE−CPD)/(ZPE−HPE)×100%*
(§6) The cell viability percentages (Viability %) and the inhibition percentages (Inhibition %) were imported into GraphPad Prism software, respectively, and curves were fitted by using nonlinear regression method to obtain the corresponding curves of the compounds, and the cytotoxicity (CC50) thereof and inhibitory activity (EC50) values against the HCV replicon thereof.

[2] = tested on: HCV GT1a wild-type replicon; test: Assay Example 1: activity against HCV GT1a wild-type replicon; assay type: cell-based; details: Hepatitis C virus, 72 h, Huh 7 cells, 3 days, luciferase
Description: as §1, §2, §3, §4, §5, §6

[3] = tested on: HCV GT1b wild-type replicon; test: Assay Example 1: activity against HCV GT1b wild-type replicon (luciferase, transient transfection); assay type: cell-based; details: Hepatitis C virus, 72 h, Huh 7 cells, 3 days
Description: as §1, §2, §3, §4, §5, §6

in vitro = assay type: cell-based; details: human; Huh 7 cells with GT1b wild-type replicon, 3 days, CellTiter-Fluor
Description: as §1, §2, §3
Cell viability assay: A cell growth fluorescent titration detection reagent CellTiter-Fluor was added to the 96-well plate of the GT1b wild-type replicon. After the cells were cultured for 1 hour in a 37° C. incubator with 5% CO2, the fluorescence signal value (RFU) was detected by Envision, and the original data (RFU) was used for the calculation of the cytotoxicity of the compounds.
The cytotoxicity of the compounds was calculated by using the equation below: Cell Viability %=(CPD−HPE)/(ZPE−HPE)×100%*
as §6

[4] = tested on: HCV GT1a wild-type replicon; test: Assay Example 6: drug resistance, activity against HCV GT1a wild-type replicon; assay type: cell-based; details: Hepatitis C virus, 72 h, Huh-7 cells, transient transfection, 3 days, read-out: GT1a-wt EC50 value
Description: (§7) Cells: Huh-7 cells are liver cancer cell strains (from AppTec, USA), HCVGT1a wild-type replicon and GT1a-NS5A-Y93H and GT1a-NS5A-L31V mutant replicons
(§8) Treatment of Compound: According to the assay final concentrations of the compounds in Table 11, DMSO stock solutions of the compounds were diluted and then added to a 96-well assay plate. The final concentration of DMSO was 0.5%.
as §3, with “T7 RNA” for “T7RNA”, “then” for “then the plate was”
(§9) Compound activity assay: Luminescence signal value (RLU) was detected with Envision within 5 minutes by using the luciferase assay reagent Britelite plus, and the original data (RLU) was used for the calculation of the activity of the compounds.
(§10) The activity of the compounds was calculated by using the equation below: Inhibition %=(CPD−ZPE)/(HPE−ZPE)×100%*
(§11) The compound activity percentages (Inhibition %) were imported into GraphPad Prism software, and curves were fitted by using nonlinear regression method to obtain the corresponding curves of the compounds and the inhibitory activity (EC50) values against the HCV replicon thereof.

[5] = tested on: hepatitis C virus HCVcc (GT2a, JFH-1); test: Assay Example 3: activity against infective hepatitis C virus HCVcc (GT2a, JFH-1); assay type: cell-based; details: Huh-7.5.1, 72 h, read-out: EC50 Value GT2a HCVcc
Description: Cells: Huh7.5.1 cells and hepatitis C virus HCVcc (GT2a, JFH-1) infection system.
Treatment of Compound: According to the assay final concentrations of the compounds in Table 6, DMSO stock solutions of the compounds were diluted and then added to a 96-well assay plate. The final concentration of DMSO was 0.5%.
Viral infection: Huh7.5.1 cells were seeded in a 96-well cell culture plate, and the cells were cultured overnight at 37° C. in an incubator with 5% CO2 for later use. The compound and the HCVcc virus solution (MOI=0.1) were simultaneously added to the cells, and the virus infection was cultured for 3 days. Parallel cytotoxicity assay was identical to the method for the inhibition of the virus but without viral infection.
Drug activity assay: The activity of hRLuc was detected by the addition of Renilla luciferase assay reagent. The original data (RLU) was used for the calculation of the activity of the compounds.
The activity of the compounds was calculated by using the equation below: Inhibition %=(CPD−VC)/(CC−VC)×100%*
as §6, with “(Cell Viability” for “(Viability”, “compound activity” for “inhibition”

[6] = tested on: GT1a-NS5A-L31V mutant replicon; test: Assay Example 6: drug resistance, activity against GT1a-NS5A-L31V mutant replicon; assay type: cell-based, hepatitis C virus; details: for GT1a-NS5A-L31V Fold change: EC50 mutant versus GT1a-wt; for EC50: Hepatitis C virus, GT1A, Huh-7, 72 h, read-out: GT1a-NS5A-L31V EC50 value
Description: as §7, §8
as §3, with “T7 RNA” for “T7RNA”, “then” for “then the plate was”
as §9, §10, §11

[7] = tested on: HCV GT1b/3a NS5A chimeric replicon; test: Assay Example 1: activity against HCV GT1b/3a NS5A chimeric replicon; assay type: cell-based; details: Hepatitis C virus, Huh-7, 72 h, read-out: EC50 value GT1b/3a NS5A chimeric replicon
Description: as §1, §2, §3, §4, §5, §6

Compound	EC50 [1] [pM]	EC50 [2] [pM]	EC50 [3] [pM]	CC50 (in vitro) [pM]	EC50 [4] [pM]	EC50 [5] [pM]	GT1a-NS5A-L31V Fold change [6]	EC50 [6] [pM]	EC50 [7] [pM]
COC(=O)N[C@H](C(=O)N1CCC[C@H]1C(=O)Nc1ccc([C@H]2CC[C@H](c3ccc4nc([C@@H]5CCCN5C(=O)[C@@H](NC(=O)OC)[C@@H](C)OC)[nH]c4c3)N2c2cc(F)c(N3CC[Si](C)(C)CC3)c(F)c2)cc1)[C@@H](C)OC [Compound 6b]	5.4	6.2	6.7	> 100	2.2	1.37	10.0	22	2.4
COC(=O)N[C@H](C(=O)N1CCC[C@H]1C(=O)Nc1ccc([C@@H]2CC[C@@H](c3ccc(NC(=O)[C@@H]4CCCN4C(=O)[C@@H](NC(=O)OC)[C@@H](C)OC)cc3)N2c2cc(F)c(N3CC[Si](C)(C)CC3)c(F)c2)cc1)[C@@H](C)OC [Compound 1a, Methyl ((2S,2′S,3R,3′R)-((2S,2′S)-(((((2S,5S)-1-(4-(4,4-dimethylazasilinan-1-yl)-3,5-difluorophenyl)pyrrolidin-2,5-diyl)bis(4,1-phenylene))bis(azanediyl))bis(carbonyl))bis(pyrrolidin-2,1-diyl))bis(3-methoxy-1-oxobutan-1,2-diyl))dicarbamate]	17	7.7	–	> 100	–	–	40.9	27	3
